One test relates to E. faecium NCTC12204. As to the kind of experiment: MIC against Enterococcus bacteria. The class given is cell-based. The conditions noted are these: NCTC 12204 / VRE, E. faecium NCTC12204, VRE, read-out: MIC. The protocol:
(§1) Antibacterial activities of the compound J-131CP against Enterococcus bacteria (Enterococcus faecium and Enterococcus faecalis) were examined by the following methods.
(§2) The compound J-131CP and quinolones were prepared in the same manner as that of Test Example 1-1.
(§3) Cell suspensions were prepared in the same manner as that of Test Example 1-1 described in the section of measurement of MIC in Test Example 1-1, except that the Enterococcus bacterium strains mentioned in Table 8 were used instead of Staphylococcus aureus, and MICs of the compound J-131CP and quinolones as control were determined for the strains in the same manner as that of Test Example 1-1 described in the section of measurement of MIC in Test Example 1-1. In Table 8, the amino acid substitution mutations in QRDR of the strains are underlined.

The subject of a further test is E. faecalis 36-15747. As to the kind of experiment: MIC against Enterococcus bacteria. The class given is cell-based. Conditions: 3615747, ParC 80Ile. On the procedure:
as §1, §2, §3

For another test, the system named is E. faecalis NCTC12203. As to the kind of experiment: MIC against Enterococcus bacteria. The conditions noted are these: NCTC 12203 / VRE, E. faecalis NCTC12203, VRE, read-out: MIC. The class given is cell-based. On the procedure:
as §1, §2, §3

The test system of the next test is S. aureus MR5867. Kind of test: MIC against stepwise QRDR mutants. The class given is cell-based. The conditions noted are these: Staphylococcus aureus.
From the text: (§4) In order to further verify that the action site of the compound J-131CP is gyrA, there were examined antibacterial activities against the MRSA, S. aureus MR5867, and stepwise-mutated strains (one-step mutant strain to three-step mutant strain) of S. aureus MR5867 in which mutation was introduced into QRDR, as well as the MSSA, S. aureus MS5952, and stepwise-mutated strains (one-step mutant strain to three-step mutant strain) of S. aureus MS5952 in which mutation was introduced into QRDR (those strains mentioned above are described in Antimicrob. Agents Chemother., 42(8), pp. 1917-1922, 1998) by the following methods. The strains used for this test example are available from the inventors of the present invention.
as §2
(§5) Then, the cell suspension was diluted 500 times with CAMHB mentioned above.
(§6) CAMHB containing each of the compound J-131CP and quinolones at each concentration was added to each well of a 96-well plate in a volume of 50 μL/well, the aforementioned cell suspension diluted 500 times was added to the well in a volume of 50 μL/well, and stationary culture was carried out overnight at 37° C. in the same manner as that of Test Example 1-1.

The next test has as its system S. aureus MS5952. Kind of test: MIC against stepwise QRDR mutants. Conditions: Staphylococcus aureus. The class given is cell-based.
From the text: as §4, §2, §5, §6

Test [1] has as its system S. aureus MS5952 two-step mutant. Kind of test: MIC against stepwise QRDR mutants. The class given is cell-based. The conditions noted are these: Staphylococcus aureus.
From the text: as §4, §2, §5, §6

Test [2] has as its system S. aureus MS5952 three-step mutant. Kind of test: MIC against stepwise QRDR mutants. The class given is cell-based. Conditions: Staphylococcus aureus.
From the text: as §4, §2, §5, §6

Test [3] concerns S. aureus MR5867 two-step mutant. As to the kind of experiment: MIC against stepwise QRDR mutants. The conditions noted are these: Staphylococcus aureus. The class given is cell-based.
From the text: as §4, §2, §5, §6

The subject of test [4] is S. aureus MR5867 three-step mutant. As to the kind of experiment: MIC against stepwise QRDR mutants. The class given is cell-based. The conditions noted are these: Staphylococcus aureus.
From the text: as §4, §2, §5, §6

A further test has as its system E. faecium RPR2. As to the kind of experiment: MIC against Enterococcus bacteria. The class given is cell-based, Enterococcus faecium. Conditions: Enterococcus faecium, RPR2. On the procedure:
as §1, §2, §3

In the next test the test system is E. faecium NCTC12202. As to the kind of experiment: MIC against Enterococcus bacteria. The class given is cell-based, Enterococcus faecium. The conditions noted are these: Enterococcus faecium, NCTC 12202 / VRE; E. faecium NCTC12202, VRE, quinolone-susceptible; read-out: MIC. On the procedure: as §1, §2, §3
The test system of a further test is S. pneumoniae KBSP11. As to the kind of experiment: MIC against pneumococcus, CAMHB with 5 mass % LHB. The conditions noted are these: Streptococcus pneumoniae. The class given is cell-based, Streptococcus pneumoniae. On the procedure: (§7) The S. pneumoniae strains used for this test belong to any one of the categories of penicillin-susceptible pneumococcus (penicillin-susceptible Streptococcus pneumoniae, PSSP), penicillin-intermediate pneumococcus (penicillin-intermediate Streptococcus pneumoniae, PISP), and penicillin-resistant pneumococcus (penicillin-resistant Streptococcus pneumoniae, PRSP).
(§8) The lysed horse blood was prepared by adding sterilized water to horse sterile defibered blood (produced by Nippon Bio-Supp. Center) at a ratio of 1:1, subjecting the mixture to freezing and thawing 5 times, then centrifuging the mixture twice at 10,000 rpm for 20 minutes, and filtering the supernatant through a filter.
(§9) The S. pneumoniae strains mentioned in Table 11 were each cultured overnight at 37° C. on a blood agar medium as stationary culture. The blood agar medium was prepared by adding 5 mass % ovine sterile defibered blood (produced by Nippon Bio-Supp. Center) to a heart infusion agar medium (produced by EIKEN CHEMICAL). Each S. pneumoniae strain cultured overnight at 37° C. as stationary culture was further subcultured overnight at 37° C. on fresh blood agar medium as stationary culture. After completion of the culture, cells of each pneumococcus strain were collected with a swab, and suspended in physiological saline, and the suspension was adjusted with physiological saline to show absorbance of 0.08 to 0.13 at 625 nm as measured with an absorbance meter (produced by Amersham), and further diluted 200 times with CAMHB containing 5 mass % LHB.
(§10) In Table 11, the amino acid substitution mutations in QRDR of the strains are underlined.

The next test has as its system S. pneumoniae BCLSP37. As to the kind of experiment: MIC against pneumococcus, CAMHB with 5 mass % LHB. The class given is cell-based, Streptococcus pneumoniae. Conditions: Streptococcus pneumoniae, BCLSP37, S. pneumoniae BCLSP37, PSSP, quinolone-resistant; ParC 79Phe, GyrA 85Lys; read-out: MIC. The protocol:
as §7, §8, §9, §10

In test [5] the test system is S. aureus MR5867 one-step mutant. Kind of test: MIC against stepwise QRDR mutants. Conditions: Staphylococcus aureus. The class given is cell-based. On the procedure: (§11) The strains used for this test example are available from the inventors of the present invention.
as §5

The test system of test [6] is S. aureus MS5952 one-step mutant. As to the kind of experiment: MIC against stepwise QRDR mutants. The conditions noted are these: Staphylococcus aureus. The class given is cell-based. On the procedure:
as §11, §5

The subject of another test is S. aureus Mu50 NR1-1. As to the kind of experiment: microbe, parasite or virus in culture. Conditions: Staphylococcus aureus, MU50NR11. The class given is cell-based. On the procedure: as §5
Another test has as its system E. faecium RPR10. As to the kind of experiment: MIC against Enterococcus bacteria. The class given is cell-based. Conditions: E. faecium RPR10, read-out: MIC. On the procedure:
as §1, §2, §3

The subject of another test is E. faecalis NCTC12201. Kind of test: MIC against Enterococcus bacteria. The class given is cell-based. The conditions noted are these: Enterococcus faecalis, NCTC 12201 / VRE, quinolone-susceptible, read-out: MIC. The protocol: as §1, §2, §3
In a further test the test system is S. aureus Mu50. Kind of test: microbe, parasite or virus in culture. The class given is cell-based, Staphylococcus aureus. The conditions noted are these: MIC for S. aureus Mu50 / MIC for S. aureus FDA209P. On the procedure: as §5
For test [7], the system named is S. aureus FDA209P (ATCC 6538P). As to the kind of experiment: microbe, parasite or virus in culture. The class given is cell-based, Staphylococcus aureus. The conditions noted are these: Staphylococcus aureus, ATCC 6538P / FDA209P / MSSA, quinolone-susceptible MSSA, ParC 80S, GyrA 84S, read-out: MIC. On the procedure: as §5
Setting [8] is: S. pneumoniae KBSP11, PRSP, quinolone-susceptible, read-out: MIC.

Values after ≈ are worked out from the molar mass of the structure shown. Like-named read-outs stand apart in the source and are kept apart here. Where only a bound is given, the exact number is not on record here.

Turning to `O=C(O)c1cn(C2CC2)c2cc(N3CCNCC3)c(F)cc2c1=O` [CIP, ciprofloxacin], the MIC was found to be 4 µg/mL (≈ 12.1 µM) in the test on E. faecium NCTC12204; 2 µg/mL (≈ 6.04 µM) in the test with E. faecalis 36-15747; 4 µg/mL (≈ 12.1 µM) with E. faecalis NCTC12203; 0.25 µg/mL (≈ 0.754 µM) against S. aureus MR5867; 0.25 µg/mL (≈ 0.754 µM) with S. aureus MS5952; 8 µg/mL (≈ 24.1 µM) in test [1]. Further, the MIC in [2] is 64 µg/mL (≈ 193 µM); in test [3] it was 32 µg/mL (≈ 96.6 µM); in [4], 128 µg/mL (≈ 386 µM); with E. faecium RPR2, more than 128 µg/mL; in the test with E. faecium NCTC12202 it was 0.5 µg/mL (≈ 1.51 µM); with S. pneumoniae KBSP11 (setting [8]), 0.5 µg/mL (≈ 1.51 µM). For the same molecule, the MIC in the test on S. pneumoniae BCLSP37 is more than 32 µg/mL.
For the molecule `CCn1cc(C(=O)O)c(=O)c2cc(F)c(N3CCNCC3)cc21` [NOR, norfloxacin], the MIC in test [5] turned out to be 16 µg/mL (≈ 50.1 µM); in test [6] it was 16 µg/mL (≈ 50.1 µM); with S. aureus Mu50 NR1-1, 16 µg/mL (≈ 50.1 µM); in the test on E. faecium NCTC12204, 4 µg/mL (≈ 12.5 µM); against E. faecalis 36-15747, 16 µg/mL (≈ 50.1 µM); in the test with E. faecium RPR10 it was 2 µg/mL (≈ 6.26 µM). Further, the MIC in the test with E. faecalis NCTC12203 was determined as 4 µg/mL (≈ 12.5 µM); in the test with E. faecalis NCTC12201 it was 2 µg/mL (≈ 6.26 µM); in the test on S. aureus MR5867, 1 µg/mL (≈ 3.13 µM); in the test on S. aureus MS5952, 1 µg/mL (≈ 3.13 µM); in test [1], 16 µg/mL (≈ 50.1 µM); in test [2], 128 µg/mL (≈ 401 µM). Besides, the MIC was 64 µg/mL (≈ 200 µM) in test [3]; more than 128 µg/mL in test [4]; more than 128 µg/mL with E. faecium RPR2; 2 µg/mL (≈ 6.26 µM) with E. faecium NCTC12202; 4 µg/mL (≈ 12.5 µM) with S. pneumoniae KBSP11 (setting [8]); 64 µg/mL (≈ 200 µM) with S. pneumoniae BCLSP37. Besides, the MIC in test [7] was 0.25 µg/mL (≈ 0.783 µM). The “MIC ratio (Mu50 MIC/FDA209P MIC)” value in the test on S. aureus Mu50 was 512.
Take `NC1CCN(c2nc3c(cc2F)c(=O)c(C(=O)O)cn3-c2ccc(F)cc2F)C1` (centres unmarked) [TSX, tosufloxacin]: the MIC in [5] stood at 0.25 µg/mL (≈ 0.618 µM); in [6] it was 2 µg/mL (≈ 4.95 µM); against S. aureus Mu50 NR1-1, 0.5 µg/mL (≈ 1.24 µM); in the test with E. faecium NCTC12204, 4 µg/mL (≈ 9.89 µM); against E. faecalis 36-15747, 2 µg/mL (≈ 4.95 µM); with E. faecium RPR10, 4 µg/mL (≈ 9.89 µM). The MIC in the test with E. faecalis NCTC12203 is 4 µg/mL (≈ 9.89 µM); with E. faecalis NCTC12201, 0.25 µg/mL (≈ 0.618 µM); in the test with S. aureus MR5867, less than 0.06 µg/mL; in the test with S. aureus MS5952 it was 0.25 µg/mL (≈ 0.618 µM); in test [1], 8 µg/mL (≈ 19.8 µM); in test [2], more than 128 µg/mL. Further, the MIC in test [3] was 8 µg/mL (≈ 19.8 µM); in test [4] it was more than 128 µg/mL; against E. faecium RPR2 it was more than 128 µg/mL; in the test on E. faecium NCTC12202, 0.25 µg/mL (≈ 0.618 µM); against S. pneumoniae KBSP11 (PRSP), 0.125 µg/mL (≈ 0.309 µM); in the test with S. pneumoniae BCLSP37, 16 µg/mL (≈ 39.6 µM). In addition, the MIC in test [7] is not above 0.06 µg/mL. Moreover, in the test with S. aureus Mu50, the “MIC ratio (Mu50 MIC/FDA209P MIC)” value is on record as “≧2048”.
